Read-outs that look alike come from different tables or passages of the source.
How the values were obtained:
IRAK4 = molecular target: T1, IRAK4 (Homo sapiens, UniProt Q9NWZ3); test: RBC HotSpot Kinase Assay, IRAK4; assay type: biochemical; parameters: purchased Reaction Biology (RBC HotSpot Kinase Assay)
T1 sequence (Q9NWZ3 1-460): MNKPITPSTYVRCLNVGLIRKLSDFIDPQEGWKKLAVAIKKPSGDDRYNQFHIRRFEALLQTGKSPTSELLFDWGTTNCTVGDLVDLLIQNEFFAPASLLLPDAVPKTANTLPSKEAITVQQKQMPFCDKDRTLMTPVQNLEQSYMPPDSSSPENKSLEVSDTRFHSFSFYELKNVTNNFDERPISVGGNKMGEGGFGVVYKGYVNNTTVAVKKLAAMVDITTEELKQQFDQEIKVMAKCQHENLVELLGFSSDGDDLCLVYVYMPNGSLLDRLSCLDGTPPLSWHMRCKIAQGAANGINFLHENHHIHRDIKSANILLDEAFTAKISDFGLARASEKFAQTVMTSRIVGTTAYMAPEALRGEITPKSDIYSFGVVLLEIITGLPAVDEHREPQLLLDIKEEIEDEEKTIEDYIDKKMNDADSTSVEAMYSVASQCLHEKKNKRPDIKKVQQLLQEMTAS
In short: (§1)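 Radiometric filter-binding (HotSpot) activity assay on isolated recombinant kinase, possibly truncated or catalytic domain only, in 20 mM Hepes pH 7.5, 10 mM MgCl2, 1 mM EGTA, 2 mM DTT, 1% DMSO. Compound preincubated 20 min with kinase and substrate, then ^33P-ATP added. Reaction 2 h at room temperature, read by P81 filter binding.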

MOLM14 F691L cells = test: MOLM14 F691L cell viability assay (Cell Titer Glo); assay type: cell-based
Description: (§2) Both cell lines have activated FLT3 receptors, each of which carry additional resistance mutations in the kinase domain (D835Y and F691L, respectively).
(§3) MOLM14 D835Y and MOLM14 F691L cells were grown in RPMI-1640 media supplemented with 20% fetal bovine serum (FBS). For viability/cytotoxicity assessments, cells were seeded into 1536-well white polystyrene tissue culture-treated Greiner plates using a Multidrop Combi dispenser (ThermoFisher), in final volume 5 μL of growth media per well, at a density of 1000 cells per well. After cell addition, 23 nL of test compound were transferred into individual wells (22 doses tested for each test compound, with a 1:2 dilution series starting at 10 μM) via a 1536 pin-tool. Bortezomib (final concentration 2.3 μM) was used as a positive control for cell cytotoxicity. Plates were incubated for 48 hours at standard incubator conditions covered by a stainless steel gasketed lid to prevent evaporation. 48 hours post compound addition, 3 μL of Cell Titer Glo (Promega) were added to each well and plates were incubated at room temperature for 15 minutes with the stainless-steel lid in place. Luminescence readings were taken using a Viewlux imager (PerkinElmer) with a 2 second exposure time per plate.

FLT3 = molecular target: T2, FLT3 (Homo sapiens, UniProt P36888); test: RBC HotSpot Kinase Assay, FLT3; assay type: biochemical
T2 construct: purchased Reaction Biology (RBC HotSpot Kinase Assay)
T2 sequence (P36888 564-958 limits assumed): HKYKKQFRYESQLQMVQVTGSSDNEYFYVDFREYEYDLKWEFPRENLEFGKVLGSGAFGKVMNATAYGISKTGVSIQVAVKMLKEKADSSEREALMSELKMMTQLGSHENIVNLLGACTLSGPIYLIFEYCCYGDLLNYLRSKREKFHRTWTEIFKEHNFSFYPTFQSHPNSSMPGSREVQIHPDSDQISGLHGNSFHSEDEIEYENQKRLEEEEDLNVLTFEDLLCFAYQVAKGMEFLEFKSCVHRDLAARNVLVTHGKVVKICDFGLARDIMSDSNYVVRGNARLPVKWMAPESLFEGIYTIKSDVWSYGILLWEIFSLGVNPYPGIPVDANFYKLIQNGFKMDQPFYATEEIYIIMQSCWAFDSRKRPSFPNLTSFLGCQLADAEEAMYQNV
In short: as §1

MOLM14 D835Y cells = test: MOLM14 D835Y cell viability assay (Cell Titer Glo); assay type: cell-based
Description: as §2, §3

THP-1-Blue NF-κB cells = test: NF-kB SEAP reporter assay in THP-1-Blue NF-κB cells; assay type: cell-based; details: 24 hours
Description: THP-1-Blue NF-κB cells (InvivoGen) carrying a stable integrated NF-κB-inducible secreted embryonic alkaline phosphatase (SEAP) reporter construct were plated at a concentration of 1×10^5 cells per well. The cells were stimulated with Pam3CSK4 (1 ng/mL) or hIL1B (1 ng/mL). After 10-20 minutes, the cells were then treated with vehicle (DMSO) or serial dilutions of the test compounds (10 doses tested for each test compound, with a 1:10 dilution series starting at 1 μM or 3 μM) with a final volume of 200 μL for 24 hours at 37° C. After 24 hours, the cells were centrifuged and 20 μL supernatant was incubated with 180 μL QUANTI-Blue reagent at 37° C. for 30-60 minutes. The levels of NF-κB-induced gene expression were measured in a microplate reader at 620 nm.

[1] = stimulated with Pam3CSK4 (1 ng/mL), read-out: NF-κB Pam3SCK4 IC50
[2] = stimulated with hIL1B (1 ng/mL), read-out: NF-κB IL1B IC50

Compound	IC50 (IRAK4) [nM]	IC50 (MOLM14 F691L cells; 48 hours) [nM]	IC50 (FLT3) [nM]	IC50 (MOLM14 D835Y cells; 48 hours) [nM]	IC50 (MOLM14 D835Y cells; Homo sapiens, MOLM-14, 48 h) [nM]	IC50 (MOLM14 F691L cells; Homo sapiens, MOLM-14, 48 h) [nM]	IC50 (THP-1-Blue NF-κB cells; [1]) [nM]	IC50 (THP-1-Blue NF-κB cells; [2]) [nM]
COc1cc2ncc(-c3cccc(N[C@H]4CNC[C@@H]4F)n3)n2nc1C(C)(O)C(F)(F)F (single isomer, unassigned; fast-eluting) [Compound 133]	< 0.5	969	< 0.5	86				
c1cc(N[C@@H]2CCCNC2)nc(-c2cnc3ccc(-c4cnn5ccccc45)nn23)c1 [Compound 19, (R)-N-(piperidin-3-yl)-6-(6-(pyrazolo[1,5-a]pyridin-3-yl)imidazo[1,2-b]pyridazin-3-yl)pyridin-2-amine]	3		< 0.5		402			
COc1cc2ncc(-c3cccc(N[C@H]4CNC[C@@H]4F)n3)n2nc1C1CC1 [Compound 96, 6-(6-cyclopropyl-7-methoxyimidazo[1,2-b]pyridazin-3-yl)-N-((3S,4S)-4-fluoropyrrolidin-3-yl)pyridin-2-amine]	3		0.6		55	673	93	121
COc1cc2ncc(-c3cccc(N[C@@H]4CCNC4)n3)n2nc1C1CC1 [Compound 97, (R)-6-(6-cyclopropyl-7-methoxyimidazo[1,2-b]pyridazin-3-yl)-N-(pyrrolidin-3-yl)pyridin-2-amine]	2		0.6		34			
COc1cc2ncc(-c3cccc(N[C@H]4CNC[C@@H]4C(F)(F)F)n3)n2nc1C1CC1 [Compound 99, 6-(6-cyclopropyl-7-methoxyimidazo[1,2-b]pyridazin-3-yl)-N-((3R,4S)-4-(trifluoromethyl)pyrrolidin-3-yl)pyridin-2-amine]	0.5		0.6		17	269	121	340
COc1cc2ncc(-c3nc(N[C@H]4CNC[C@@H]4F)c(F)cc3F)n2nc1C1CC1 [Compound 107, 6-(6-cyclopropyl-7-methoxyimidazo[1,2-b]pyridazin-3-yl)-3,5-difluoro-N-((3S,4S)-4-fluoropyrrolidin-3-yl)pyridin-2-amine]	< 0.5		< 0.5		11	137	18	15
COc1cc2ncc(-c3nc(N[C@@H]4CCCNC4)c(F)cc3F)n2nc1C(C)(C)O [Compound 127, (R)-2-(3-(3,5-difluoro-6-(piperidin-3-ylamino)pyridin-2-yl)-7-methoxyimidazo[1,2-b]pyridazin-6-yl)propan-2-ol]	16		< 0.5		1220	6120	254	359

Other lines, results leading:

IC50 (IRAK4) [nM]	IC50 (MOLM14 F691L cells; 48 hours) [nM]	IC50 (FLT3) [nM]	IC50 (MOLM14 D835Y cells; 48 hours) [nM]	IC50 (MOLM14 D835Y cells; Homo sapiens, MOLM-14, 48 h) [nM]	IC50 (MOLM14 F691L cells; Homo sapiens, MOLM-14, 48 h) [nM]	IC50 (THP-1-Blue NF-κB cells; [1]) [nM]	IC50 (THP-1-Blue NF-κB cells; [2]) [nM]	Compound
7		< 0.5		101				F[C@H]1CNC[C@@H]1Nc1cccc(-c2cnc3ccc(-c4cnn5ccccc45)nn23)n1 [Compound 9, N-((3S,4S)-4-fluoropyrrolidin-3-yl)-6-(6-(pyrazolo[1,5-a]pyridin-3-yl)imidazo[1,2-b]pyridazin-3-yl)pyridin-2-amine]
1		< 0.5		34	388	135	254	COc1cc2ncc(-c3cccc(N[C@H]4CNCC[C@@H]4F)n3)n2nc1C1CC1 [Compound 102, 6-(6-cyclopropyl-7-methoxyimidazo[1,2-b]pyridazin-3-yl)-N-((3S,4S)-4-fluoropiperidin-3-yl)pyridin-2-amine]
0.8		< 0.5		3	29	63	59	COc1cc2ncc(-c3nc(N[C@@H]4CCCNC4)c(F)cc3F)n2nc1C1CC1 [Compound 106, (R)-6-(6-cyclopropyl-7-methoxyimidazo[1,2-b]pyridazin-3-yl)-3,5-difluoro-N-(piperidin-3-yl)pyridin-2-amine]
0.6		< 0.5		3	29	30	13	COc1cc2ncc(-c3nc(N[C@H]4CNCC[C@@H]4F)c(F)cc3F)n2nc1C1CC1 [Compound 108, 6-(6-cyclopropyl-7-methoxyimidazo[1,2-b]pyridazin-3-yl)-3,5-difluoro-N-((3S,4S)-4-fluoropiperidin-3-yl)pyridin-2-amine]
4		< 0.5		109	1540	92	121	COc1cc2ncc(-c3nc(N[C@H]4CNC[C@@H]4F)c(F)cc3F)n2nc1C(C)(C)O [Compound 126, 2-(3-(3,5-difluoro-6-(((3S,4S)-4-fluoropyrrolidin-3-yl)amino)pyridin-2-yl)-7-methoxyimidazo[1,2-b]pyridazin-6-yl)propan-2-ol]
6		< 0.5		34	386	108	196	COc1cc2ncc(-c3nc(N[C@H]4CNCC[C@@H]4F)c(F)cc3F)n2nc1C(C)(C)O [Compound 128, 2-(3-(3,5-difluoro-6-(((3S,4S)-4-fluoropiperidin-3-yl)amino)pyridin-2-yl)-7-methoxyimidazo[1,2-b]pyridazin-6-yl)propan-2-ol]

From patent US12534469B2 (CHILDREN'S HOSPITAL MEDICAL CENTER, priority 2020, dated 2026)
